In patent US9999619B2, “Piperidin-4-yl azetidine derivatives as JAK1 inhibitors” (Incyte Corporation, priority 2010, dated 2018):

Experiments:
Format in all cases: biochemical
Jak2 (a.a. 828-1132) = Jak2 (a.a. 828-1132) (Homo sapiens (Human), UniProt O60674); assay: In vitro JAK kinase assay (HTRF, phosphorylation of a biotinylated peptide), JAK2; details: measured at 1 mM ATP
Procedure, shortened: (§1)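 N-terminally His-tagged catalytic domains, baculovirus-expressed in insect cells and purified, were used as enzyme. Reactions ran 1 hr at room temperature and were stopped with a mix of 45 mM EDTA, 300 nM SA-APC and 6 nM Eu-Py20. The HTRF signal was read after 40 min of antibody binding.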

[1] = molecular target: human JAK1 (a.a. 837-1142); assay: In vitro JAK kinase assay (HTRF, phosphorylation of a biotinylated peptide), JAK1; details: ratio of JAK2 IC50 to JAK1 IC50, measured at 1 mM ATP
Procedure, shortened: as §1

[2] = molecular target: human JAK1 (a.a. 837-1142) (Homo sapiens, UniProt P23458); assay: as above; details: measured at 1 mM ATP
Procedure, shortened: as §1

Jak2 (a.a. 828-1132), sequence (O60674 828-1132): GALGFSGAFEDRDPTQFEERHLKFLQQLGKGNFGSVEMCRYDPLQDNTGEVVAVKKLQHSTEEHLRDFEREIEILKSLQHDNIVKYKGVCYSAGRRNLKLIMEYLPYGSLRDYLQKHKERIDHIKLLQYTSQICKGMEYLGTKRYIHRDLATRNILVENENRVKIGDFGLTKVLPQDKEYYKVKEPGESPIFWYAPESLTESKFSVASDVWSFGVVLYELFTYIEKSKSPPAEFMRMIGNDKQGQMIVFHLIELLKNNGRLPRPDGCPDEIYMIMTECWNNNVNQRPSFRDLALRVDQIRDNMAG

SMILES	IC50 (Jak2 (a.a. 828-1132)) [nM]	IC50 Ratio JAK2/JAK1 [1]	IC50 [2] [nM]
N#CCC1(n2cc(-c3ccnc4[nH]ccc34)cn2)CN(C2CCN(C(=O)Nc3ccc(C#N)cc3C(F)(F)F)CC2)C1 [Example 311, 4-{3-(cyanomethyl)-3-[4-(1H-pyrrolo[2,3-b]pyridin-4-yl)-1H-pyrazol-1-yl]azetidin-1-yl}-N-[4-cyano-2-(trifluoromethyl)phenyl]piperidine-1-carboxamide]	> 100	11.1	5 to 20
N#CCC1(n2cc(-c3ncnc4[nH]ccc34)cn2)CN(C2CCN(C(=O)C3(c4ccc(Cl)cc4)CC3)CC2)C1 [Example 111, {1-(1-{[1-(4-chlorophenyl)cyclopropyl]carbonyl}piperidin-4-yl)-3-[4-(7H-pyrrolo[2,3-d]pyrimidin-4-yl)-1H-pyrazol-1-yl]azetidin-3-yl}acetonitrile]	10 to 50	2.6	5 to 20
N#CCC1(n2cc(-c3ncnc4[nH]ccc34)cn2)CN(C2CCN(C(=O)Nc3c(Cl)cccc3Cl)CC2)C1 [Example 160, 4-{3-(cyanomethyl)-3-[4-(7H-pyrrolo[2,3-d]pyrimidin-4-yl)-1H-pyrazol-1-yl]azetidin-1-yl}-N-(2,6-dichlorophenyl)piperidine-1-carboxamide]	10 to 50	12.1	≤ 5
N#CCC1(n2cc(-c3ncnc4[nH]ccc34)cn2)CN(C2CC3CCC(C2)N3Cc2c(F)ccc(F)c2Cl)C1 (stereo not drawn) [Example 241, {1-[8-(2-Chloro-3,6-difluorobenzyl)-8-azabicyclo[3.2.1]oct-3-yl]-3-[4-(7H-pyrrolo[2,3-d]pyrimidin-4-yl)-1H-pyrazol-1-yl]azetidin-3-yl}acetonitrile]	≤ 10	3.8	≤ 5
Cc1ccc(NC(=O)N2CCC(N3CC(CC#N)(n4cc(-c5ncnc6[nH]ccc56)cn4)C3)CC2)c(F)n1 [Example 200, 4-{3-(cyanomethyl)-3-[4-(7H-pyrrolo[2,3-d]pyrimidin-4-yl)-1H-pyrazol-1-yl]azetidin-1-yl}-N-(2-fluoro-6-methylpyridin-3-yl)piperidine-1-carboxamide]	10 to 50	6.7	≤ 5
N#CCC1(n2cc(-c3ncnc4[nH]ccc34)cn2)CN(C2CCN(C(=O)c3ccc(-c4ccccc4)cc3)CC2)C1 [Example 114, {1-[1-(biphenyl-4-ylcarbonyl)piperidin-4-yl]-3-[4-(7H-pyrrolo[2,3-d]pyrimidin-4-yl)-1H-pyrazol-1-yl]azetidin-3-yl}acetonitrile]	10 to 50	1.5	5 to 20
N#CCC1(n2cc(-c3ncnc4[nH]ccc34)cn2)CN(C2CCN(C(=O)Nc3ccc(F)c(F)c3)CC2)C1 [Example 176, 4-{3-(cyanomethyl)-3-[4-(7H-pyrrolo[2,3-d]pyrimidin-4-yl)-1H-pyrazol-1-yl]azetidin-1-yl}-N-(3,4-difluorophenyl)piperidine-1-carboxamide]	≤ 10	5.1	≤ 5
N#CCC1(n2cc(-c3ncnc4[nH]ccc34)cn2)CN(C2CCN(C(=O)c3sc4cc(F)ccc4c3Cl)CC2)C1 [Example 91, {1-{1-[(3-chloro-6-fluoro-1-benzothien-2-yl)carbonyl]piperidin-4-yl}-3-[4-(7H-pyrrolo[2,3-d]pyrimidin-4-yl)-1H-pyrazol-1-yl]azetidin-3-yl}acetonitrile]	≤ 10	1.7	≤ 5
Cc1nc(S(=O)(=O)N2CCC(N3CC(CC#N)(n4cc(-c5ncnc6[nH]ccc56)cn4)C3)CC2)cn1C [Example 259, {1-{1-[(1,2-dimethyl-1H-imidazol-4-yl)sulfonyl]piperidin-4-yl}-3-[4-(7H-pyrrolo[2,3-d]pyrimidin-4-yl)-1H-pyrazol-1-yl]azetidin-3-yl}acetonitrile]	≤ 10	4.6	≤ 5
N#CCC1(n2cc(-c3ncnc4[nH]ccc34)cn2)CN(C2CCN(C(=O)Nc3cscc3Br)CC2)C1 [Example 159, N-(4-bromo-3-thienyl)-4-{3-(cyanomethyl)-3-[4-(7H-pyrrolo[2,3-d]pyrimidin-4-yl)-1H-pyrazol-1-yl]azetidin-1-yl}piperidine-1-carboxamide]	10 to 50	15.0	≤ 5
N#CCC1(n2cc(-c3ncnc4[nH]ccc34)cn2)CN(C2CCN(C(=O)c3ccc(-c4ccccc4C#N)c(F)c3)CC2)C1 [Example 124, 4′-[(4-{3-(cyanomethyl)-3-[4-(7H-pyrrolo[2,3-d]pyrimidin-4-yl)-1H-pyrazol-1-yl]azetidin-1-yl}piperidin-1-yl)carbonyl]-2′-fluorobiphenyl-2-carbonitrile]	≤ 10	8.4	≤ 5
N#CCC1(n2cc(-c3ncnc4[nH]ccc34)cn2)CN(C2CCN(C(=O)Nc3cccc(Cl)c3F)CC2)C1 [Example 177, N-(3-chloro-2-fluorophenyl)-4-{3-(cyanomethyl)-3-[4-(7H-pyrrolo[2,3-d]pyrimidin-4-yl)-1H-pyrazol-1-yl]azetidin-1-yl}piperidine-1-carboxamide]	≤ 10	8.5	≤ 5
N#CCC1(n2cc(-c3ncnc4[nH]ccc34)cn2)CN(C2CCN(C(=O)Nc3ncccc3F)CC2)C1 [Example 202, 4-{3-(cyanomethyl)-3-[4-(7H-pyrrolo[2,3-d]pyrimidin-4-yl)-1H-pyrazol-1-yl]azetidin-1-yl}-N-(3-fluoropyridin-2-yl)piperidine-1-carboxamide]	10 to 50	6.4	≤ 5
COC(=O)c1ccc(NC(=O)N2CCC(N3CC(CC#N)(n4cc(-c5ncnc6[nH]ccc56)cn4)C3)CC2)c(F)c1 [Example 208, methyl 4-{[(4-{3-(cyanomethyl)-3-[4-(7H-pyrrolo[2,3-d]pyrimidin-4-yl)-1H-pyrazol-1-yl]azetidin-1-yl}piperidin-1-yl)carbonyl]amino}-3-fluorobenzoate]	10 to 50	4.8	≤ 5
N#CCC1(n2cc(-c3ncnc4[nH]ccc34)cn2)CN(C2CCN(C(=O)c3cccc(OC(F)(F)F)c3)CC2)C1 [Example 21, (3-[4-(7H-pyrrolo[2,3-d]pyrimidin-4-yl)-1H-pyrazol-1-yl]-1-{1-[3-(trifluoromethoxy)benzoyl]piperidin-4-yl}azetidin-3-yl)acetonitrile]	10 to 50	3.2	5 to 20
N#CCC1(n2cc(-c3ncnc4[nH]ccc34)cn2)CN(C2CCN(Cc3ccc(C#N)c(F)c3)CC2)C1 [Example 229, 4-[(4-{3-(cyanomethyl)-3-[4-(7H-pyrrolo[2,3-d]pyrimidin-4-yl)-1H-pyrazol-1-yl]azetidin-1-yl}piperidin-1-yl)methyl]-2-fluorobenzonitrile]	50 to 100	6.4	5 to 20
Cn1c(NC(=O)N2CCC(N3CC(CC#N)(n4cc(-c5ncnc6[nH]ccc56)cn4)C3)CC2)nc2ccccc21 [Example 194, 4-{3-(cyanomethyl)-3-[4-(7H-pyrrolo[2,3-d]pyrimidin-4-yl)-1H-pyrazol-1-yl]azetidin-1-yl}-N-(1-methyl-1H-benzimidazol-2-yl)piperidine-1-carboxamide]	≤ 10	2.2	≤ 5
N#CCC1(n2cc(-c3ncnc4[nH]ccc34)cn2)CN(C2CCN(C(=O)c3ccsc3)CC2)C1 [Example 15, {3-[4-(7H-pyrrolo[2,3-d]pyrimidin-4-yl)-1H-pyrazol-1-yl]-1-[1-(3-thienylcarbonyl)piperidin-4-yl]azetidin-3-yl}acetonitrile]	10 to 50	5.3	5 to 20
N#CCC1(n2cc(-c3ncnc4[nH]ccc34)cn2)CN(C2CCN(C(=O)Nc3ccc(F)cc3F)CC2)C1 [Example 171, 4-{3-(cyanomethyl)-3-[4-(7H-pyrrolo[2,3-d]pyrimidin-4-yl)-1H-pyrazol-1-yl]azetidin-1-yl}-N-(2,4-difluorophenyl)piperidine-1-carboxamide]	10 to 50	7.5	≤ 5
N#CCC1(n2cc(-c3ncnc4[nH]ccc34)cn2)CN(C2CCN(Cc3ccc(F)c(C#N)c3)CC2)C1 [Example 220, 5-[(4-{3-(cyanomethyl)-3-[4-(7H-pyrrolo[2,3-d]pyrimidin-4-yl)-1H-pyrazol-1-yl]azetidin-1-yl}piperidin-1-yl)methyl]-2-fluorobenzonitrile]	50 to 100	4.4	5 to 20
N#CCC1(n2cc(-c3ncnc4[nH]ccc34)cn2)CN(C2CCN(C(=O)c3ccc(-c4ccc(C#N)cc4)cc3)CC2)C1 [Example 126, 4′-[(4-{3-(cyanomethyl)-3-[4-(7H-pyrrolo[2,3-d]pyrimidin-4-yl)-1H-pyrazol-1-yl]azetidin-1-yl}piperidin-1-yl)carbonyl]biphenyl-4-carbonitrile]	10 to 50	6.3	≤ 5
N#CCC1(n2cc(-c3ncnc4[nH]ccc34)cn2)CN(C2CCN(C(=O)Nc3ccc(Cl)cc3)CC2)C1 [Example 184, N-(4-chlorophenyl)-4-{3-(cyanomethyl)-3-[4-(7H-pyrrolo[2,3-d]pyrimidin-4-yl)-1H-pyrazol-1-yl]azetidin-1-yl}piperidine-1-carboxamide]	≤ 10	3.9	≤ 5
Cc1cc(NC(=O)N2CCC(N3CC(CC#N)(n4cc(-c5ncnc6[nH]ccc56)cn4)C3)CC2)n(C)n1 [Example 197, 4-{3-(cyanomethyl)-3-[4-(7H-pyrrolo[2,3-d]pyrimidin-4-yl)-1H-pyrazol-1-yl]azetidin-1-yl}-N-(1,3-dimethyl-1H-pyrazol-5-yl)piperidine-1-carboxamide]	10 to 50	3.2	5 to 20
